# Data: patent publication US12280082B2, “Formulation for inhibiting virus replication” (priority 2020, dated 2025)
# Where two headings read alike, the source gives them in different places.
# Experiments:
# [1] = tested on: SARS-COV2; assay: microbe, parasite or virus in culture; assay type: cell-based; conditions: Severe acute respiratory syndrome coronavirus 2, Vero C1008, 48 h
# [2] = tested on: VeroE6 cells; assay: In vitro cytotoxicity (Hoechst 33342 / Sytox orange imaging); assay type: cell-based
# Procedure: The cytotoxicity assay was done in a 96-well plate format in 3 wells for each sample. 1×10e4 VeroE6 cells were plated per well and incubated at 37° C. overnight for the monolayer formation. Next day, cells were incubated with 1 μl (5.5 mg/ml solution in 200 μl) A. paniculate at the concentration with final DMSO conc. being 0.5%. The control cells were incubated with 0.5% DMSO only. The cells without test substance was the control for water soluble compounds. 24 and 48 hours later, cells were stained with Hoechst 33342 and Sytox orange dye. Images were taken at 10×, 16 images per well, which covers 90% of well area using ImageXpress Microconfocal (Molecular Devices). Hoechst 33342 nucleic acid stain is a popular cell-permeant nuclear counterstain that emits blue fluorescence when bound to dsDNA. It stains all the live and dead cells. Sytox orange dye stains nucleic acids in cells with compromised membranes. This stain is an indicator of cell death. First, the software will count total number of cells in the Hoechst image. In the Sytox image, it will count, among Hoechst positive cells, how many cells are positive for sytox.
compound,measurement,setting,value
CCC(CC)COC(=O)[C@H](C)N[P@](=O)(OC[C@H]1O[C@@](C#N)(c2ccc3c(N)ncnn23)[C@H](O)[C@@H]1O)Oc1ccccc1 [Remdesivir],IC50,[1]; read-out: IC50 for E gene,0.15 µM
same,IC50,[1]; read-out: IC50 for N gene,0.11 µM
same,percentage of cell viability,[2]; 24th hour of treatment,99.23%
same,percentage of cell viability,[2]; 48th hour of treatment,94.37%
